In patent US7560586B2, “Acid and ester compounds and methods of using the same” (SmithKline Beecham Corporation, priority 2002, dated 2009):

Legend:
[1] = molecular target: T1, LXRα ligand binding domain (Homo sapiens, UniProt Q13133); assay: Ligand Sensing Assay for LXRα Agonist Activity; format: biochemical; conditions: 1 μM; over a background reading of 10000 fluorescence units
T1 construct: his tag; made in house
T1 sequence (Q13133 183-447): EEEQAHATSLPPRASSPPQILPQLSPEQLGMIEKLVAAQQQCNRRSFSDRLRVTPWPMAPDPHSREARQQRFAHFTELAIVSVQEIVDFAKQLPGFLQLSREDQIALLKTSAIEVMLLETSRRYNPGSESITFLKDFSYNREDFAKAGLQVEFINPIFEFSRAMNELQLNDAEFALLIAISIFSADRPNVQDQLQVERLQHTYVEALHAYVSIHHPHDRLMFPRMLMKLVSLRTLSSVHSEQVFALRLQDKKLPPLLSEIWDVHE
T1 sequence (Q15788 676-700 partner): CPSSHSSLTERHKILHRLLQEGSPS
Protocol: Test Method 2: Ligand Sensing Assay for LXRα Agonist Activity
The assay for LXRα was run according to the procedures of Test Method 1, above using his-tagged LXRα ligand binding domain (amino acids 183447 of Genbank accession number U22662, with the 14th amino acid corrected to A from R). In this assay 1 μM 24(S), 25-epoxycholesterol gave a reading of 20000 fluorescence units over a background reading of 10000 fluorescence units.

[2] = molecular target: T2, human LXRβ ligand binding domain (Homo sapiens, UniProt P55055); assay: Ligand Sensing Assay (LiSA) for LXRβ Agonist Activity (recruitment of SRC1-derived peptide, HTRF); format: biochemical; conditions: 1 μM; over a background reading of 10000 fluorescence units
T2 construct: LXRβLBD(185-461) is eluted with a gradient from 50 to 500 mM imidazole; made in house; host or cells: E. coli BL21(DE3), vector pRSETa
T2 sequence (P55055 184-460 limits assumed): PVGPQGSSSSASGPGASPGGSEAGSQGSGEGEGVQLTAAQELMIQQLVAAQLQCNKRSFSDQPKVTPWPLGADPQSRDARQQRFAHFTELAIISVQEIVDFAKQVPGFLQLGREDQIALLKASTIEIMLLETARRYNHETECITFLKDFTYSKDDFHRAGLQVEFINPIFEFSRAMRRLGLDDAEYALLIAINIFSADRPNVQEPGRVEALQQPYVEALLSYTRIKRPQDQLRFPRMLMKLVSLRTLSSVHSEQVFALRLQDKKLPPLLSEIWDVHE
T2 sequence (Q15788 676-700 partner limits assumed): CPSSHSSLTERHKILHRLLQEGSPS
Source text: Test Method 1: Ligand Sensing Assay (LiSA) for LXRβ Agonist Activity
This assay measures the recruitment of a peptide derived from the coactivator protein, SRC1, to the agonist-bound LXRβ. Peptides derived from other nuclear receptor cofactors may be similarly prepared and assayed.
To generate the human LXRβ ligand binding domain suitable for LiSA, a modified polyhistidine tag (MKKGHHHHHHG) (SEQ ID No. 1) was fused in frame to the human LXRβ ligand binding domain (amino acids 185461 of Genbank accession number U07132) and subcloned into the expression vector pRSETa (Invitrogen) under the control of an IPTG inducible T7 promoter. The human LXRβ ligand binding domain was expressed in E. coli strain BL21(DE3). Ten-liter fermentation batches were grown in Rich PO4 media with 0.1 mg/mL Ampicillin at 25° C. for 12 hours, cooled to 9° C. and held at that temperature for 36 hours to a density of OD600=14. At this cell density, 0.25 mM IPTG was added and induction proceeded for 24 hours at 9° C., to a final OD600=16. […]
Typically 25-50 g of cell paste is resuspended in 250-500 mL TBS, pH 8.0 (25 mM Tris, 150 mM NaCl). […] After washing to baseline absorbance with equilibration buffer, the column is washed with approximately one column volume of TBS pH […] containing 95 mM imidazole. […] After washing to baseline absorbance with the dilution buffer the protein is eluted with a gradient from 50-500 mM NaCl. […]

`C[C@H](CC[C@@H]1OC1(C)C)[C@H]1CC[C@H]2[C@@H]3CC=C4C[C@@H](O)CC[C@]4(C)[C@H]3CC[C@]12C` [24(S), 25-epoxycholesterol] was tested, and the reading [1] was 20000 fluorescence units and the reading [2] was 20000 fluorescence units.
